Test results as given in patent US8592403B2, “Diazepine and diazocane compounds as MC4 agonists” (Pfizer Limited, priority 2008, dated 2013).
pEC50, pKi: −log10 of the molar value.

What was measured:
MC3 receptor (MC3R) = biological target: T1, MC3 receptor (MC3R) (Homo sapiens, UniProt P41968); experiment: Nle4, D-Phe7-α-MSH inhibition at the MC3 receptor (competition binding, SPA, CHO-CRE MC3R membranes)
T1 construct: expressed in transfected cells; host or cells: CHO-CRE MC3R cells (membranes)
T1 sequence (P41968 whole entry): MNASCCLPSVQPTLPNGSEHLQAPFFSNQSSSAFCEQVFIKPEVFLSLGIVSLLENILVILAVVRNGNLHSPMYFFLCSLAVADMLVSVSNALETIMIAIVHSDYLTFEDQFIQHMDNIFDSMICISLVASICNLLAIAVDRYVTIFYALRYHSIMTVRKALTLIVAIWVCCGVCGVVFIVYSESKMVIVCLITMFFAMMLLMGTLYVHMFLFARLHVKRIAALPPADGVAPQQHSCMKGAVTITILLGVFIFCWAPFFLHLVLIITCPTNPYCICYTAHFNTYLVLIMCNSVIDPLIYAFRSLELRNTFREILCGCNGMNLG
Method in brief: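 Competition binding by SPA used CHO-CRE MC3R membranes on WGA beads with 0.06 nM [125I]Nle4,D-Phe7-α-MSH and 11 half-log competitor concentrations. Buffer was 25 mM HEPES, MgCl2, CaCl2, 1% Pluronic F68, pH7, incubated 12 h at room temperature. Non-specific binding was defined with 100 nM SHU9119, and Ki values were derived.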

human MC3 receptors = biological target: T2, human MC3 receptors (Homo sapiens, UniProt P41968); experiment: In vitro agonist potency (EC50) at melanocortin receptor type 3, cAMP in recombinant cell line; assay type: cell-based
T2 construct: stably transfected with full length cDNA encoding human MC1 or MC3 receptors; expressed in transfected cells
T2 sequence (P41968 whole entry): as above
Protocol: Measurement of In Vitro Agonist Potency (EC50) of Compounds Against Melanocortin Receptors Type 1 and 3 (MC1 and MC3).
Activation of melanocortin (MC) receptors by agonists results in activation of intracellular adenylate cyclase enzymes that synthesise the second messenger signalling molecule, adenosine 3′,5′-cyclic monophosphate (cAMP). Changes in cAMP levels following treatment of recombinant MC1 and MC3 cell lines with test compound were measured and an MC1 and MC3 potency estimate (EC50) calculated as follows: […]
Human embryonic kidney (HEK) or Chinese hamster ovary cell lines stably transfected with full length cDNA encoding human MC1 or MC3 receptors, respectively, were established using standard molecular biology methods. Test compounds were dissolved in dimethyl sulfoxide (DMSO) at 4 mM. 11 point half log unit increment dilution series of test compound, typically starting at 50 uM were prepared in a buffer comprised of phosphate buffered saline (PBS), 2.5% DMSO and 0.05% pluronic F-127 surfactant. Freshly cultured cells at 80-90% confluence were harvested and re-suspended in Dulbecco's Modified Eagle's Medium (DMEM). Cells (10,000 for MC3, 20,000 for MC1) were added to the test compound dilution series in a 384 well assay plate and incubated for 1 hour at 37° C. The relative cAMP concentration in each well was then measured using a β-galactosidase enzyme fragment complementation method purchased in kit form as the Discoverx cAMP II kit from GE Healthcare/Amersham Biosciences UK. In the case of MC1,3-Isobutyl-1-methylxanthine (IBMX) at a concentration of 750 μM was included in DMEM as the cells were re-suspended for assay. […] Sigmoidal curves were fitted to plots of log10 inhibitor concentration vs percent effect using a custom made software application called SIGHTS and EC50 estimates determined by the software as the concentration of test compound giving an effect half way between the bottom and top asymptotes of the sigmoidal dose response curve. Each experiment included an EC50 determination for alpha melanocyte stimulating hormone, which was used as a standard to track assay consistency and allow fair comparison between EC50 estimates obtained in different experiments.

MC4 receptor (MC4R) = biological target: T3, MC4 receptor (MC4R) (Homo sapiens, UniProt P32245); experiment: Nle4, D-Phe7-α-MSH inhibition at the MC4 receptor (competition binding, SPA, CHO-CRE MC4R membranes)
T3 construct: expressed in transfected cells; host or cells: CHO-CRE MC4R cells (membranes)
T3 sequence (P32245 whole entry): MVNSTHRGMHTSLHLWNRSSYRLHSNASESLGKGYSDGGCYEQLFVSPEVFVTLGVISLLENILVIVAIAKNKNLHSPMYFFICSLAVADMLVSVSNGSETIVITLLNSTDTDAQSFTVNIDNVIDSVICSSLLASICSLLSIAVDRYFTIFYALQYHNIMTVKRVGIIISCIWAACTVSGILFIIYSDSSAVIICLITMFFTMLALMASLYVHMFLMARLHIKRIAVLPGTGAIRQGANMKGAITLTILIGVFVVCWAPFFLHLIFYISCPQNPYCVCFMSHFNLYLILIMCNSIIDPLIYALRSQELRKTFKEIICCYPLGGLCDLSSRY
Method in brief: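 Competition binding by SPA used CHO-CRE MC4R membranes on WGA beads (0.15 ug membrane/well) with 0.06 nM [125I] Nle4, D-Phe7-α-MSH and 11 half-log competitor concentrations in duplicate. Buffer was 25 mM HEPES pH 7 with MgCl2, CaCl2, Pluronic F68 and protease inhibitors; incubation was 12 hours at room temperature. Non-specific binding was set with 100 nM SHU9119, and Ki was calculated.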

SMILES	pKi (MC3 receptor (MC3R))	pEC50 (human MC3 receptors)	pKi (MC4 receptor (MC4R))
CCCC(=O)N1CCN(C(=O)[C@@H]2CN(c3cccnn3)C[C@H]2c2ccc(F)cc2F)CCCC1c1ccccc1 (mixture of isomers) [Example 101]	6.15	6.94	7.11
CS(=O)(=O)N1CCN(C(=O)[C@@H]2CN(c3ccc(=O)[nH]n3)C[C@H]2c2ccc(F)cc2F)CCCC1c1ccc(Cl)cc1 (mixture of isomers) [Example 79]	5.95	5.74	6.97
CS(=O)(=O)N1CCN(C(=O)C2CN(c3ccc(=O)[nH]n3)CC2c2ccc(F)cc2F)CCCC1c1ccc(F)cc1 (stereo not drawn) [Example 78]	5.49	5.48	6.52
CC(=O)N1CCN(C(=O)[C@@H]2CN(c3cccnn3)C[C@H]2c2ccc(F)cc2F)CCCC1c1ccccc1 (mixture of isomers) [Example 103]	5.81	6.48	6.50
COc1ccc([C@@H]2CN(c3ccc(C#N)nn3)C[C@H]2C(=O)N2CCC[C@@H](c3ccc(Cl)cc3)N(C(C)=O)CC2)c(F)c1 [Example 67]	6.79	6.75	7.23
COC(=O)N1CCN(C(=O)[C@@H]2CN(c3ccc(=O)[nH]n3)C[C@H]2c2ccc(OC)cc2F)CCC[C@@H]1c1ccc(Cl)cc1 [Example 90, methyl 8R-(4-chlorophenyl)-4-{[(3S,4R)-4-(2-fluoro-4-methoxyphenyl)-1-(6-oxo-1,6-dihydropyridazin-3-yl)pyrrolidin-3-yl]carbonyl}-1,4-diazocane-1-carboxylate]	6.64	6.34	7.92
CC(C)C(=O)N1CCN(C(=O)[C@@H]2CN(C(C)(C)C)C[C@H]2c2ccc(Cl)cn2)CCC[C@H]1c1ccc(Cl)cc1 [Example 20, 1-{[(3S,4S)-1-tert-butyl-4-(5-chloropyridin-2-yl)pyrrolidin-3-yl]carbonyl}-5S-(4-chlorophenyl)-4-isobutyryl-1,4-diazocane]	6.41	5.78	7.16
COC(=O)N1CCN(C(=O)[C@@H]2CN(c3ccc(=O)n(C)n3)C[C@H]2c2ccc(F)cc2F)CCC[C@H]1c1ccc(Cl)cc1 [Example 66, methyl (8S-4-chlorophenyl)-4-{[(3S,4R)-4-(2,4-difluorophenyl)-1-(1-methyl-6-oxo-1,6-dihydropyridazin-3-yl)pyrrolidin-3-yl]carbonyl}-1,4-diazocane-1-carboxylate]	6.73	5.91	7.15
CC(=O)N1CCN(C(=O)[C@@H]2CN(c3ccc(C#N)nn3)C[C@H]2c2ccc(Cl)cn2)CCC[C@H]1c1ccc(Cl)cc1 [Example 72]	6.85	7.05	7.15
CC(=O)N1CCN(C(=O)[C@@H]2CN(c3ccc4nncn4n3)C[C@H]2c2ccc(Cl)cn2)CCC[C@H]1c1ccc(Cl)cc1 [Example 6, 6-[(3S,4S)-3-{[4-acetyl-5S-(4-chlorophenyl)-1,4-diazocan-1-yl]carbonyl}-4-(5-chloropyridin-2-yl)pyrrolidin-1-yl][1,2,4]triazolo[4,3-b]pyridazine]	7.05	6.52	7.55
COc1ccc([C@@H]2CN(c3ccc(=O)n(C)n3)C[C@H]2C(=O)N2CCCC(c3ccc(Cl)cc3)N(S(C)(=O)=O)CC2)c(F)c1 (single isomer, unassigned) [Example 117]	5.94	5.08	7.47
CC(C)(C)N1C[C@@H](C(=O)N2CCC[C@@H](c3ccc(Cl)cc3)N(C(=O)C3CCC3)CC2)[C@H](c2ccc(F)cc2F)C1 [Example 14]	5.39	5.07	6.42
CNC(=O)N1CCN(C(=O)[C@@H]2CN(c3cccnn3)C[C@H]2c2ccc(F)cc2F)CCCC1c1ccccc1 (mixture of isomers) [Example 73]	6.01	6.26	6.65
CS(=O)(=O)N1CCN(C(=O)[C@@H]2CN(c3ccc(C#N)nn3)C[C@H]2c2ccc(F)cc2F)CCCC1c1ccc(Cl)cc1 (mixture of isomers) [Example 76]	6.02	6.22	6.46
COc1ccc([C@@H]2CN(C(C)(C)C)C[C@H]2C(=O)N2CCC[C@@H](c3ccc(Cl)cc3)N(C(C)=O)CC2)c(F)c1 [Example 70]	5.23	5.39	6.16
COC(=O)N1CCN(C(=O)[C@@H]2CN(c3ccc(=O)n(C)n3)C[C@H]2c2ccc(OC)cc2F)CCC[C@H]1c1ccc(Cl)cc1 [Example 118]	6.75	5.09	7.61
CC(C)C(=O)N1CCN(C(=O)[C@@H]2CN(C(C)(C)C)C[C@H]2c2ccc(F)cc2F)CCC[C@H]1c1ccc(Cl)cc1 [Example 11]	5.39	5.47	6.70
COC(=O)N1CCN(C(=O)[C@@H]2CN(C(C)(C)C)C[C@H]2c2ccc(OC)cc2F)CCCC1c1ccc(Cl)cc1 (stereo partly drawn) [Example 91]	5.37	5.13	6.42
COc1ccc([C@@H]2CN(c3ccc(=O)[nH]n3)C[C@H]2C(=O)N2CCC[C@@H](c3ccc(Cl)cc3)N(C(C)=O)CC2)c(F)c1 [Example 68, 6-[(3S,4R)-3-{[4-acetyl-5S-(4-chlorophenyl)-1,4-diazocan-1-yl]carbonyl}-4-(2-fluoro-4-methoxyphenyl)pyrrolidin-1-yl]pyridazin-3(2H)-one]	6.51	6.14	7.66
COC(=O)N1CCN(C(=O)[C@@H]2CN(c3ccc(=O)n(C)n3)C[C@H]2c2ccc(F)cc2F)CCC[C@@H]1c1ccc(Cl)cc1 [Example 56]	6.73	5.91	7.15
COC(=O)N1CCN(C(=O)[C@@H]2CN(c3ccc(=O)n(C)n3)C[C@H]2c2ccc(OC)cc2F)CCC[C@@H]1c1ccc(Cl)cc1 [Example 119, methyl 8R-(4-chlorophenyl)-4-{[(3S,4R)-4-(2-fluoro-4-methoxyphenyl)-1-(1-methyl-6-oxo-1,6-dihydropyridazin-3-yl)pyrrolidin-3-yl]carbonyl}-1,4-diazocane-1-carboxylate]	6.05	4.95	7.65
CC(C)(C)C(=O)N1CCN(C(=O)[C@@H]2CN(C(C)(C)C)C[C@H]2c2ccc(F)cc2F)CCC[C@H]1c1ccc(Cl)cc1 [Example 15]	5.47	5.50	6.84
CCC(=O)N1CCN(C(=O)[C@@H]2CN(C(C)(C)C)C[C@H]2c2ccc(F)cc2F)CCC[C@H]1c1ccc(Cl)cc1 [Example 10]	5.18	5.38	6.52
